Data from patent US20170042908A1, “METHOD FOR TREATING GEOGRAPHIC ATROPHY ASSOCIATED WITH AGE-RELATED MACULAR DEGENERATION” (NATIONAL UNIVERSITY CORPORATION KAGAWA UNIVERSITY, priority 2014, published 2017).

Key:
[1] = Clinical study: logMAR visual acuity; format: in vivo, human; conditions: U group
Method: (§1) A prospective, randomized, placebo-controlled study was performed for forty-eight eyes with GA which had not a recurrence of exudative AND for at least 6 months after receiving the treatment for exudative AND. The eyes of the treatment group received two drops of 0.15% isopropyl unoprostone (IU) three times a day for 54 weeks. Participants were examined before starting the study (baseline) and at 4, 8, 12, 24, 36, and 54 weeks to measure GA area, the change in GA, the GA enlargement rate and the logarithm of the minimum angle of resolution (logMAR) visual acuity. The placebo group eyes received the vehicle 3 times a day.
(§2) Two drops of the test drug or the placebo (vehicle) were administered at 5 minute intervals to the eyes three times a day, i.e. morning, afternoon, and night.
(§3) Study duration: 54 weeks.
(§4) The participants were examined to measure the following items at enrollment (baseline) and at 4, 8, 12, 24, 36 and 54 weeks.
Visual acuity was examined and the obtained value was converted the logarithm of the minimum angle of resolution (LogMar) to give logMar visual acuity.

geographic atrophy (GA) = test: Clinical study: GA area by fundus autofluorescence imaging (RegionFinder); format: in vivo, human
Method: as §1, §2, §3, §4
Fundus autofluorescence images were obtained using BluePeak™ blue laser fundus autofluorescence (FAF) and confocal scanning laser ophthalmoscopy reflectance (OSLO). Hypofluorescent areas that reflect decreased autofluorescence were defined as GA areas. In detail, digital images obtained as above were calibrated and analyzed using RegionFinder™ software (version 2.4, Heidelberg Engineering, Germany) to define and quantify GA areas. Obtaining the fundus autofluorescence images, analyzing the obtained images and defining GA areas were performed according to the manuals of the equipment and software.
At each measurement time, the GA size, the change in GA area from the baseline and the GA enlargement rate from the baseline were determined.

CCCCCCCC(=O)CC[C@@H]1[C@@H](C/C=C\CCCC(=O)OC(C)C)[C@@H](O)C[C@H]1O [isopropyl unoprostone, 13,14-dihydro-15-keto-20-ethyl F2α isopropyl ester]
logMAR visual acuity, trend over time ([1]; over the study, no statistically significant difference over the baseline): tended to improve over time
logMAR visual acuity at week 4 ([1]; week 4, baseline 0.39±0.39, p=0.62 vs P group): 0.33±0.34
logMAR visual acuity at week 54 ([1]; week 54, baseline 0.39±0.39, p=0.27 vs P group): 0.37±0.34
mean change in GA area at week 54 (geographic atrophy (GA); U group (24 eyes), 0.15% eye drops two drops three times a day, 54 weeks, change from baseline (baseline 2.71±2.03 mm^2), p<0.001 vs placebo): 0.44±0.39 mm^2
enlargement of GA (conclusion) (geographic atrophy (GA); eye drops, 54 weeks, vs placebo): could suppress the enlargement of GA
change in geographic atrophy (GA) area (conclusion) (geographic atrophy (GA); patients who developed GA after treatment for exudative AMD, eye drops): statistically significant suppression
GA enlargement rate at 54 week (geographic atrophy (GA); representative U group case, person with typical AMD, left eye, 0.15% eye drops, two drops three times a day, vs baseline): 118%
GA area, difference between U and P groups (geographic atrophy (GA); throughout the study): no statistically significant difference
